{
  "source": "paper PMC9909341",
  "about": "“TLQP-21 is a low potency partial C3aR activator on human primary macrophages” (Frontiers in Immunology, 2023)",
  "key": {"human C3aR": {"molecular_target": "T1, human C3aR (Homo sapiens, UniProt Q16581)", "T1 sequence (Q16581 1-482)": "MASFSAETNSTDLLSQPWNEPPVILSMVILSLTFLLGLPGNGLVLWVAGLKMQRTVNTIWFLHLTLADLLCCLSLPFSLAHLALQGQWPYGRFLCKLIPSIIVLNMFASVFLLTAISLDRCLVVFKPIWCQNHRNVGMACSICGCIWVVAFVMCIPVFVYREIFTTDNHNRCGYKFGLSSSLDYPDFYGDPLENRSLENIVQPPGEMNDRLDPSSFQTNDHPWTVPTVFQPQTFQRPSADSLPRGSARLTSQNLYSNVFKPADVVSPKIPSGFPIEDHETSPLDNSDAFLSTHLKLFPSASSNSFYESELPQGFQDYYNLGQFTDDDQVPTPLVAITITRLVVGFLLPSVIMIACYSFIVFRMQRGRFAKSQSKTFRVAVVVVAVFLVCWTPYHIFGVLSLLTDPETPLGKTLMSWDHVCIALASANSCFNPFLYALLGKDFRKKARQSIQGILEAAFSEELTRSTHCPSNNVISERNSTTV", "experiment": "phospho-ERK1/2 assay in CHO-C3aR cells", "format": "cell-based", "settings": "n = 3-4; for EC50: CHO cells stably expressing human C3aR, serum-starved, AlphaLISA p-ERK1/2, combined data, read-out: EC50 (pERK1/2), CHO-C3aR", "description": "(§1) Cell lines for this study were cultured as previously described ([20]). Non-transfected CHO-K1 cells or CHO cells stably expressing the human C3aR (CHO-C3aR; Product # ES-730-C, PerkinElmer, Melbourne, Australia) were maintained in Ham’s F12 medium containing 10% foetal bovine serum (FBS), 100 IU/ml penicillin and 100 μg/ml streptomycin, with additional 400 μg/ml G418 (In vivoGen, San Diego, USA) added for CHO-C3aR cell culture. HEK293 cells were maintained in DMEM medium containing 10% FBS, 100 IU/ml penicillin and 100 μg/ml streptomycin. All cell lines were maintained in T175 flasks (37°C, 5% CO2) and subcultured at 80-90% confluency using 0.05% trypsin-EDTA in DPBS.\n(§2) Ligand-induced ERK1/2 phosphorylation was assessed using the AlphaLISA Surefire Ultra p-ERK1/2 (Thr202/Tyr204) kit (PerkinElmer, Melbourne, Australia) following the manufacturer’s protocol as previously described ([18], [20], [22]). Briefly, CHO-K1, CHO-C3aR, CHO-C5aR1, HMDMs (50,000/well) or BMDMs (90,000/well) were seeded in tissue culture-treated 96-well plates (Corning, Corning, USA) for 24 h and serum-starved overnight. All ligand dilutions were prepared in serum-free medium (SFM) containing 0.1% BSA. For inhibition assays, cells were pre-treated with the following ligands (5 µM SB290157, or respective concentrations of hC3a, mC3a, hC5a, hTLQP-21, and mTLQP-21) or the solvent-only control for 30 min before agonist (hC3a, hTLQP-21 and mTLQP-21) addition. The concentration and identity of the ligands are described in detail in the figure legends. For stimulation, cells were treated with ligands at the indicated concentrations for 10 min at RT and then immediately lysed using AlphaLISA lysis buffer on a microplate shaker (450 rpm, 10 min). For the detection of phospho-ERK1/2 content, cell lysate (5 μL/well) was transferred to a 384-well ProxiPlate (PerkinElmer, Melbourne, Australia) and added to the donor and acceptor reaction mix (2.5 μL/well, respectively), followed by a 2-h incubation at RT in the dark. On a Tecan Spark 20M (Tecan, Männedorf, Switzerland), the plate was measured using standard AlphaLISA settings.\n(§3) All experiments were conducted in triplicates and repeated on three separate occasions unless otherwise specified. Data was analysed using GraphPad software (Prism 9.1). Data from each individual repeat was normalised accordingly (as specified in the figure legends) before being combined and expressed as mean ± standard error of the mean (S.E.M.) unless otherwise described. For all dose-response studies, logarithmic concentration-response curves were plotted using combined data and analysed to determine the respective potency values. Statistical analysis was performed using two-way ANOVA with Dunnett’s post hoc analysis. Donor-matched comparisons were made for HMDM experiments. Differences were deemed significant when p < 0.05.\nFigure 1 hTLQP-2 and mTLQP-21 activate ERK signalling in CHO-K1 and CHO-C3aR cells. hTLQP-21, mTLQP-21 and plasma-derived human C3a were tested in (A) non-transfected CHO-K1 or (B) CHO cells stably expressing human C3aR. CHO cells were serum-starved overnight and then stimulated with various ligands for 10 min before being lysed. The phospho-ERK1/2 content in the lysate was measured and expressed as fold-baseline before being combined. The maximum relative pERK1/2 activity induced by each ligand is shown in (C). Data represent mean ± S.E.M. of triplicate measurements from 3-4 independent experiments (n = 3-4). Two-way ANOVA with Dunnett’s post hoc analysis. *P < 0.05, ***P < 0.001, ****P < 0.0001. Ligand treated versus medium treated cells for each cell line."}, "[1]": {"tested_on": "HMDM (endogenous human C3aR)", "format": "cell-based", "settings": "for EC50: primary human macrophages, 50,000/well, AlphaLISA p-ERK1/2, n = 4 donors, read-out: EC50 (pERK1/2), HMDM", "text": "HMDMs were generated and cultured as previously described ([20]), with experiments approved by The University of Queensland Human Research Ethics Committee. Briefly, human buffy coat blood from anonymous healthy donors was obtained through the Australian Red Cross Blood Service (Brisbane, Australia). Human CD14+ monocytes were isolated from blood using Lymphoprep density centrifugation (STEMCELL, Melbourne, Australia) followed by CD14+ MACS magnetic bead separation (Miltenyi Biotec, Sydney, Australia). The isolated monocytes were differentiated for 7 days in Iscove’s Modified Dulbecco’s Medium supplemented with 10% FBS, 100 IU/ml penicillin, 100 μg/ml streptomycin and 15 ng/ml recombinant human macrophage colony stimulating factor (BioLegend, San Diego, USA) on 10 mm square dishes (Bio-strategy, Brisbane, Australia). Non-adherent cells were removed by washing with DPBS, and the adherent differentiated HMDMs were harvested by gentle scraping.\nas §2, §3\nFigure 3 Agonistic and antagonistic activities of hTLQP-21 and mTLQP-21 in human monocyte-derived macrophages. Serum-starved HMDMs (50,000/well) were (A) stimulated with medium or respective ligands at the indicated concentrations for 10 min and then lysed, or (B) pre-treated with 5 µM SB290157 for 30 min prior to stimulation. (C) HMDMs were pre-treated with 10 μM hTLQP-21 or mTLQP-21 for 30 min before being stimulated with respective concentrations of human C3a. (D) HMDMs were pre-treated with 10 nM hC3a, 10 μM hTLQP-21 or mTLQP-21 for 30 min before being stimulated with the same concentrations of the above ligands for 10 min and then lysed. (E) HMDMs were pre-treated with 10 μM hTLQP-21 or mTLQP-21 for 30 min before being stimulated with respective concentrations of human C5a for 10 min and then lysed. […]"}, "[2]": {"tested_on": "CHO-K1 cells (endogenous C3aR)", "experiment": "phospho-ERK1/2 assay in non-transfected CHO-K1 cells", "format": "cell-based, Chinese hamster", "description": "as §1\nLigand-induced ERK1/2 phosphorylation was assessed using the AlphaLISA Surefire Ultra p-ERK1/2 (Thr202/Tyr204) kit (PerkinElmer, Melbourne, Australia) following the manufacturer’s protocol as previously described ([18], [20], [22]). Briefly, CHO-K1, CHO-C3aR, CHO-C5aR1, HMDMs (50,000/well) or BMDMs (90,000/well) were seeded in tissue culture-treated 96-well plates (Corning, Corning, USA) for 24 h and serum-starved overnight. […] On a Tecan Spark 20M (Tecan, Männedorf, Switzerland), the plate was measured using standard AlphaLISA settings.\nAll experiments were conducted in triplicates and repeated on three separate occasions unless otherwise specified. Data was analysed using GraphPad software (Prism 9.1). Data from each individual repeat was normalised accordingly (as specified in the figure legends) before being combined and expressed as mean ± standard error of the mean (S.E.M.) unless otherwise described. For all dose-response studies, logarithmic concentration-response curves were plotted using combined data and analysed to determine the respective potency values. […]\nFigure 1 hTLQP-2 and mTLQP-21 activate ERK signalling in CHO-K1 and CHO-C3aR cells. hTLQP-21, mTLQP-21 and plasma-derived human C3a were tested in (A) non-transfected CHO-K1 or (B) CHO cells stably expressing human C3aR. […] The phospho-ERK1/2 content in the lysate was measured and expressed as fold-baseline before being combined. […]"}},
  "data": [
    {"substance": "C3a: Table 1 label: human C3a in CHO-C3aR and HMDM, recombinant mouse C3a in BMDM", "values": [
      {"measurement": "maximum relative pERK1/2 activity, CHO-C3aR", "setting": "human C3aR; 10 min, Figure 1C", "value": 7.3, "unit": "fold baseline"},
      {"measurement": "EC50", "setting": "human C3aR; 10 min stimulation at RT", "value": 0.15, "unit": "nM"},
      {"measurement": "logEC50 ± SE (pERK1/2), CHO-C3aR", "setting": "human C3aR; CHO-C3aR, 10 min stimulation at RT", "value": "-9.8 ± 0.1"},
      {"measurement": "% C3a activity ± SE, CHO-C3aR", "setting": "human C3aR; efficacy relative to hC3a, fold baseline normalised", "value": "100 ± 2.8", "unit": "%"},
      {"measurement": "logEC50 ± SE (pERK1/2), HMDM", "setting": "[1]; HMDM, 10 min stimulation at RT, n = 3-4", "value": "-9.9 ± 0.1"},
      {"measurement": "EC50", "setting": "[1]; 10 min stimulation at RT", "value": 0.11, "unit": "nM"},
      {"measurement": "% C3a activity ± SE, HMDM", "setting": "[1]; relative to hC3a, n = 3-4", "value": "100 ± 6.2", "unit": "%"},
      {"measurement": "maximum relative pERK1/2 activity, CHO-K1", "setting": "[2]; 10 min, Figure 1C, n = 3-4", "value": 2.7, "unit": "fold baseline"},
      {"measurement": "relative efficacy of ERK signalling in CHO-K1 versus CHO-C3aR", "setting": "[2]; fold lower than in CHO-C3aR cells", "value": 2.6, "unit": "fold"}
    ]},
    {"substance": "hC3a: purified (plasma-derived) human C3a, purchased from Merck", "values": [
      {"measurement": "EC50", "setting": "human C3aR; 10 min stimulation at RT", "value": 0.15, "unit": "nM"},
      {"measurement": "EC50", "setting": "[1]; 10 min stimulation at RT", "value": 0.11, "unit": "nM"},
      {"measurement": "ERK1/2 phosphorylation, CHO-K1", "setting": "[2]; 10 min stimulation at RT, n = 3-4", "value": "significantly triggered ERK1/2 phosphorylation in CHO-K1 cells"}
    ]}
  ]
}
